Columns and labels:
[1] = molecular target: Cyclin A2-CDK2 kinase enzyme (Homo sapiens, UniProt P20248+P24941); assay: ADP-Glo Kinase Assay, screening at 0, 1 and 10 μM; format: biochemical; settings: for kinase activity reduced to: remaining CDK2 kinase activity
cyclin A2-CDK2 complex = cyclin A2-CDK2 complex (Homo sapiens, UniProt P20248+P24941); assay: dose response in the in vitro biochemical kinase assay; settings: 0 nM to 100 μM, room temperature

SMILES	effect on kinase activity (in words) ([1]; 10 μM compound)	also measured
CCc1c(N)nc(N)nc1Nc1ccc(Cl)c(Cl)c1 [NSC50590]	weakly activated CDK2 activity	–
Cc1cc(Br)ccc1Nc1nc(N)nc(N)c1N=O [NSC66578]	weakly activated CDK2 activity	–
N#Cc1c(N)nc(N)nc1Nc1ccc(Br)cc1 [compound 1]	–	effect on kinase activity (in words) ([1]; 1 μM compound): no significant effect; kinase activity reduced to ([1]; 10 μM compound): 58%; IC50 (cyclin A2-CDK2 complex): 6.5 µM
NC(=S)c1cn(C2OC(CO)C(O)C2O)c2ncnc(N)c12 (centres unmarked) [compound 2]	did not further reduce the kinase activity	kinase activity reduced to ([1]; 1 μM compound): 43%; IC50 (cyclin A2-CDK2 complex): 0.0076 µM
Cc1ccc(Nc2nc(N)nc(N)c2N=O)cc1 [NSC49876]	weakly activated CDK2 activity	–

The next lines start with results.

effect on kinase activity (in words) ([1]; 10 μM compound)	SMILES	also measured
weakly activated CDK2 activity	N#Cc1c(Nc2ccc(Br)cc2)[nH]c(=O)[nH]c1=O [NSC73380]	–
weakly activated CDK2 activity	NC(=O)c1c(Nc2ccc(Br)cc2)[nH]c(=O)[nH]c1=O [NSC73381]	–

Source: publication PMC7326642 (Current computer-aided drug design, 2021)
